{"source": "patent US9078925B2", "about": "“Pharmaceutical semi-solid composition of isotretinoin” (GALEPHAR PHARMACEUTICAL RESEARCH, INC., priority 2012, dated 2015)", "origin": "cited, not measured here", "key": {"[1]": {"experiment": "not given", "remark": "listed apart in the source"}}, "note": "Like-named read-outs stand apart in the source and are kept apart here.", "data": [{"molecule": "CC1=C(/C=C/C(C)=C/C=C/C(C)=C\\C(=O)O)C(C)(C)CCC1", "note": "[Isotretinoin, 13-cis retinoic acid]", "values": [{"measurement": "bioavailability after an oral intake", "setting": "fasted conditions", "result": 25, "unit": "%"}, {"measurement": "bioavailability after an oral intake", "setting": "fed conditions", "result": 40, "unit": "%"}, {"measurement": "time to reach steady-state concentrations", "setting": "of treatment", "result": 1, "unit": "week"}, {"measurement": "solubility in water", "setting": "[1]", "result": "poorly soluble in water"}]}]}
